From ChEMBL document CHEMBL1201862, “PubChem BioAssay data set” (2004)
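Test compounds were applied to cells in 96-well plates for 48 hours at 5 doses. GI50: concentration for 50% inhibition of growth.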 Calls of active or inactive are those of the source. Cut-off read from the data, not from the text of the source: active = GI50 up to about 1.1 µM and inactive = higher.

Columns and labels:
Experiment in all cases: NCI anticancer screen, dose series, 48 h
SNB-78 = system: SNB-78
NCI-H23 = system: NCI-H23
SR = system: SR
HT-29 = system: HT-29
HCC 2998 = system: HCC 2998
SF-539 = system: SF-539
KM-20L2 = system: KM-20L2
Malme-3M = system: Malme-3M
SF-295 = system: SF-295
HCT-116 = system: HCT-116
OVCAR-5 = system: OVCAR-5
OVCAR-4 = system: OVCAR-4
MOLT-4 = system: MOLT-4
DMS-114 = system: DMS-114
SNB-19 = system: SNB-19
UACC-62 = system: UACC-62
OVCAR-3 = system: OVCAR-3
DLD-1 = system: DLD-1
RXF 631 = system: RXF 631
RPMI-8226 = system: RPMI-8226
EKVX = system: EKVX
OVCAR-8 = system: OVCAR-8
LXFL 529 = system: LXFL 529
HOP-18 = system: HOP-18
HL-60 = system: HL-60
M19-MEL = system: M19-MEL
SF-268 = system: SF-268
HCT-15 = system: HCT-15
SN12C = system: SN12C
A549 = system: A549
U-251 = system: U-251
TK-10 = system: TK-10
ACHN = system: ACHN
NCI-H460 = system: NCI-H460
HOP-62 = system: HOP-62
DMS-273 = system: DMS-273
SNB-75 = system: SNB-75
SK-OV-3 = system: SK-OV-3
A498 = system: A498
CCRF-CEM = system: CCRF-CEM
CAKI-1 = system: CAKI-1
XF498 = system: XF498
UACC-257 = system: UACC-257
SW-620 = system: SW-620
K562 = system: K562
NCI-H226 = system: NCI-H226
COLO 205 = system: COLO 205
IGROV-1 = system: IGROV-1
SK-MEL-2 = system: SK-MEL-2
LOX IMVI = system: LOX IMVI
SK-MEL-28 = system: SK-MEL-28
786-0 = system: 786-0
KM12 = system: KM12
UO-31 = system: UO-31
M14 = system: M14
SK-MEL-5 = system: SK-MEL-5
HOP-92 = system: HOP-92
NCI-H522 = system: NCI-H522

NC(=S)N/N=C(\C(=O)Nc1ccc(Cl)c(Cl)c1)C1=NN(c2ccccc2)C(c2cccc([N+](=O)[O-])c2)CC1=O (centres undefined)
GI50 (SNB-78): 62.4 µM (inactive) | GI50 (NCI-H23): 21.5 µM (inactive) | GI50 (SR): 28.6 µM (inactive) | GI50 (HT-29): 16.5 µM (inactive) | GI50 (HCC 2998): 40.6 µM (inactive) | GI50 (SF-539): 23.8 µM (inactive) | GI50 (KM-20L2): 20.7 µM (inactive) | GI50 (Malme-3M): > 100 µM (inactive) | GI50 (SF-295): 24.9 µM (inactive) | GI50 (HCT-116): 4.29 µM (inactive) | GI50 (OVCAR-5): 38.5 µM (inactive) | GI50 (OVCAR-4): 20 µM (inactive) | GI50 (MOLT-4): 17.3 µM (inactive) | GI50 (DMS-114): 20.7 µM (inactive) | GI50 (SNB-19): 35.6 µM (inactive) | GI50 (UACC-62): 40.8 µM (inactive) | GI50 (OVCAR-3): 20.6 µM (inactive) | GI50 (DLD-1): 19.4 µM (inactive) | GI50 (RXF 631): 12 µM (inactive) | GI50 (RPMI-8226): 3.37 µM (inactive) | GI50 (EKVX): > 100 µM (inactive) | GI50 (OVCAR-8): 26.7 µM (inactive) | GI50 (LXFL 529): 19.1 µM (inactive) | GI50 (HOP-18): 29.1 µM (inactive) | GI50 (HL-60): 33.7 µM (inactive) | GI50 (M19-MEL): 18.4 µM (inactive) | GI50 (SF-268): 38.5 µM (inactive) | GI50 (HCT-15): 30.8 µM | GI50 (SN12C): 16.8 µM (inactive) | GI50 (A549): 75.2 µM (inactive) | GI50 (U-251): 4.31 µM (inactive) | GI50 (TK-10): > 100 µM (inactive) | GI50 (ACHN): 39.2 µM (inactive) | GI50 (NCI-H460): 36.6 µM (inactive) | GI50 (HOP-62): 34.6 µM (inactive) | GI50 (DMS-273): 11.7 µM (inactive) | GI50 (SNB-75): 26.5 µM (inactive) | GI50 (SK-OV-3): 30.5 µM (inactive) | GI50 (A498): > 100 µM (inactive) | GI50 (CCRF-CEM): 17.2 µM (inactive) | GI50 (CAKI-1): 79.4 µM (inactive) | GI50 (XF498): 34.3 µM (inactive) | GI50 (UACC-257): 30.2 µM (inactive) | GI50 (SW-620): 13.8 µM (inactive) | GI50 (K562): 17.9 µM (inactive) | GI50 (NCI-H226): 25.9 µM (inactive) | GI50 (COLO 205): 19 µM (inactive) | GI50 (IGROV-1): 27 µM (inactive) | GI50 (SK-MEL-2): > 100 µM (inactive) | GI50 (LOX IMVI): 16.3 µM (inactive) | GI50 (SK-MEL-28): 52.5 µM (inactive) | GI50 (786-0): 17.6 µM (inactive) | GI50 (KM12): 85.9 µM (inactive) | GI50 (UO-31): 30.3 µM (inactive) | GI50 (M14): 55.1 µM (inactive) | GI50 (SK-MEL-5): > 100 µM (inactive)

O=C(/C=C/c1ccc(-c2ccccc2)cc1)c1ccccc1
GI50 (SNB-78): 29 µM (inactive) | GI50 (NCI-H23): 20.1 µM (inactive) | GI50 (SR): 12.7 µM (inactive) | GI50 (HT-29): 21.9 µM (inactive) | GI50 (HCC 2998): 18.2 µM (inactive) | GI50 (SF-539): 17.9 µM (inactive) | GI50 (Malme-3M): 41.9 µM (inactive) | GI50 (SF-295): 30.2 µM (inactive) | GI50 (HCT-116): 14.5 µM (inactive) | GI50 (OVCAR-5): 17.3 µM (inactive) | GI50 (OVCAR-4): 29.7 µM (inactive) | GI50 (MOLT-4): 46.9 µM (inactive) | GI50 (DMS-114): 14.6 µM (inactive) | GI50 (UACC-62): 20.8 µM (inactive) | GI50 (DLD-1): 26.3 µM (inactive) | GI50 (RXF 631): 25.2 µM (inactive) | GI50 (RPMI-8226): 19.5 µM (inactive) | GI50 (EKVX): 23.3 µM (inactive) | GI50 (OVCAR-8): 17.3 µM (inactive) | GI50 (LXFL 529): 17.6 µM (inactive) | GI50 (HOP-18): > 100 µM (inactive) | GI50 (HL-60): 39.6 µM (inactive) | GI50 (M19-MEL): 24 µM (inactive) | GI50 (SF-268): 24.8 µM (inactive) | GI50 (HCT-15): 17.7 µM | GI50 (SN12C): 30.4 µM (inactive) | GI50 (A549): 19.5 µM (inactive) | GI50 (HOP-92): 16.6 µM (inactive) | GI50 (U-251): 22.9 µM (inactive) | GI50 (TK-10): 22.1 µM (inactive) | GI50 (ACHN): 31.6 µM (inactive) | GI50 (NCI-H460): 20.6 µM (inactive) | GI50 (SNB-75): 31 µM (inactive) | GI50 (SK-OV-3): 23.7 µM (inactive) | GI50 (A498): 20 µM (inactive) | GI50 (CCRF-CEM): 90.4 µM (inactive) | GI50 (NCI-H522): 17.3 µM (inactive) | GI50 (CAKI-1): 38.7 µM (inactive) | GI50 (XF498): 25.2 µM (inactive) | GI50 (UACC-257): 32.4 µM (inactive) | GI50 (SW-620): 20.7 µM (inactive) | GI50 (K562): 27.7 µM (inactive) | GI50 (NCI-H226): 22.1 µM (inactive) | GI50 (COLO 205): 22.3 µM (inactive) | GI50 (IGROV-1): 26.7 µM (inactive) | GI50 (SK-MEL-2): 12.7 µM (inactive) | GI50 (LOX IMVI): 15.7 µM (inactive) | GI50 (SK-MEL-28): 25.8 µM (inactive) | GI50 (786-0): 22.8 µM (inactive) | GI50 (KM12): 17.9 µM (inactive) | GI50 (UO-31): 35 µM (inactive) | GI50 (M14): 31.1 µM (inactive) | GI50 (SK-MEL-5): 19.7 µM (inactive)
